Values of other authors, collected in PubChem BioAssay AID1259409 (Chemical Carcinogenesis Research Information System (CCRIS), 2018).

Tested on: rodent chemically induced tumor inhibition, incidence and multiplicity
Test: CCRIS tumor inhibitor studies
Conditions: Dose [Inhibitor]: 0, Route [Inhibitor]: ORAL, Species: RAT, Strain/Sex: F344/MALE

For `COc1cc(/C=C/C(=O)O[C@H]2CC[C@]34C[C@]35CC[C@]3(C)[C@@H]([C@H](C)CCC=C(C)C)CC[C@@]3(C)[C@@H]5CC[C@H]4C2(C)C)ccc1O`, the “tumour outcome (control, treated, inhibition, significance)” value (Carcinogen: 2,2'-DIHYDROXY-DI-N-PROPYLNITROSAMINE, 53609-64-6, N-ETHYL-N-HYDROXYETHYLNITROSAMINE, 13147-25-6, 3,2'-DIMETHYL-4-AMINO-, Carcinogen: 2,2'-DIHYDROXY-DI-N-PROPYLNITROSAMINE, 53609-64-6, N-ETHYL-N-HYDROXYETHYLNITROSAMINE, 13147-25-6, 3,2'-DIMETHYL-4-AMINO-, 1% IN DIET FOR 32 WK BEGINNING 1 WK POST CARCINOGEN TREATMENT (STUDY DURATION: 36 WK), Target Tissue: Type of Lesion: LUNG: ADENOMA, Dose [Carcinogen]: 1000 MG/KG BW DHPN TWICE 1500 MG/KG BW EHEN TWICE, 75 MG/KG BW 3 TIMES ADMINISTERED OVER FIRST 3 WK, Promoter: NONE USED) is listed as 7/14 (50%), 11/13 (85%), -70%, not significant, the “tumour outcome (control, treated, inhibition, significance)” value (Carcinogen: 2,2'-DIHYDROXY-DI-N-PROPYLNITROSAMINE, 53609-64-6, N-ETHYL-N-HYDROXYETHYLNITROSAMINE, 13147-25-6, 3,2'-DIMETHYL-4-AMINO-, Carcinogen: 2,2'-DIHYDROXY-DI-N-PROPYLNITROSAMINE, 53609-64-6, N-ETHYL-N-HYDROXYETHYLNITROSAMINE, 13147-25-6, 3,2'-DIMETHYL-4-AMINO-, 1% IN DIET FOR 32 WK BEGINNING 1 WK POST CARCINOGEN TREATMENT (STUDY DURATION: 36 WK), Target Tissue: Type of Lesion: THYROID GLAND: ADENOMA, Dose [Carcinogen]: 1000 MG/KG BW DHPN TWICE, 1500 MG/KG BW EHEN TWICE 75 MG/KG BW 3 TIMES ADMINISTERED OVER FIRST 3 WK, Promoter: NONE USED) is listed as 3/14 (21%), 2/13 (15%), 29%, not significant and the “tumour outcome (control, treated, inhibition, significance)” value (Carcinogen: 2,2'-DIHYDROXY-DI-N-PROPYLNITROSAMINE, 53609-64-6, N-ETHYL-N-HYDROXYETHYLNITROSAMINE, 13147-25-6, 3,2'-DIMETHYL-4-AMINO-, Carcinogen: 2,2'-DIHYDROXY-DI-N-PROPYLNITROSAMINE, 53609-64-6, N-ETHYL-N-HYDROXYETHYLNITROSAMINE, 13147-25-6, 3,2'-DIMETHYL-4-AMINO-, 1% IN DIET FOR 32 WK BEGINNING 1 WK POST CARCINOGEN TREATMENT (STUDY DURATION: 36 WK), Target Tissue: Type of Lesion: THYROID GLAND: CARCINOMA, Dose [Carcinogen]: 1000 MG/KG BW DHPN TWICE, 1500 MG/KG BW EHEN TWICE, 75 MG/KG BW 3 TIMES ADMINISTERED OVER FIRST 3 WK, Promoter: NONE USED) is listed as 3/14 (21%), 1/13 (8%), 62%, not significant. The “tumour outcome (control, treated, inhibition, significance)” value (Carcinogen: 2,2'-DIHYDROXY-DI-N-PROPYLNITROSAMINE, 53609-64-6, N-ETHYL-N-HYDROXYETHYLNITROSAMINE, 13147-25-6, 3,2'-DIMETHYL-4-AMINO-, Carcinogen: 2,2'-DIHYDROXY-DI-N-PROPYLNITROSAMINE, 53609-64-6, N-ETHYL-N-HYDROXYETHYLNITROSAMINE, 13147-25-6, 3,2'-DIMETHYL-4-AMINO-, 1% IN DIET FOR 32 WK BEGINNING 1 WK POST CARCINOGEN TREATMENT (STUDY DURATION: 36 WK), Target Tissue: Type of Lesion: URINARY BLADDER: CARCINOMA, Dose [Carcinogen]: 1000 MG/KG BW DHPN TWICE, 1500 MG/KG BW EHEN TWICE, 75 MG/KG BW 3 TIMES ADMINISTERED OVER FIRST 3 WK, Promoter: NONE USED) was 1/14 (7%), 2/13 (15%), -114%, not significant, the outcome (Carcinogen: 2,2'-DIHYDROXY-DI-N-PROPYLNITROSAMINE, 53609-64-6, N-ETHYL-N-HYDROXYETHYLNITROSAMINE, 13147-25-6, 3,2'-DIMETHYL-4-AMINO-, Carcinogen: 2,2'-DIHYDROXY-DI-N-PROPYLNITROSAMINE, 53609-64-6, N-ETHYL-N-HYDROXYETHYLNITROSAMINE, 13147-25-6, 3,2'-DIMETHYL-4-AMINO-, 1% IN DIET FOR 32 WK BEGINNING 1 WK POST CARCINOGEN TREATMENT (STUDY DURATION: 36 WK), Target Tissue: Type of Lesion: URINARY BLADDER: PAPILLOMA, Dose [Carcinogen]: 1000 MG/KG BW DHPN TWICE, 1500 MG/KG BW EHEN TWICE, 75 MG/KG BW 3 TIMES ADMINISTERED OVER FIRST 3 WK, Promoter: NONE USED) was 0/14 (0%), 3/13 (23%), -100%, not significant and the “tumour outcome (control, treated, inhibition, significance)” value (Carcinogen: 2,2'-DIHYDROXY-DI-N-PROPYLNITROSAMINE, 53609-64-6, N-ETHYL-N-HYDROXYETHYLNITROSAMINE, 13147-25-6, 3,2'-DIMETHYL-4-AMINO-, Carcinogen: 2,2'-DIHYDROXY-DI-N-PROPYLNITROSAMINE, 53609-64-6, N-ETHYL-N-HYDROXYETHYLNITROSAMINE, 13147-25-6, 3,2'-DIMETHYL-4-AMINO-, 1% IN THE DIET FOR 32 WK BEGINNING 1 WK POST CARCINOGEN TREATMENT (STUDY DURATION: 36 WK), Target Tissue: Type of Lesion: LARGE INTESTINE: ADENOMA, Dose [Carcinogen]: 1000 MG/KG BW DHPN TWICE, 1500 MG/KG BW EHEN TWICE, 75 MG/KG BW 3 TIMES ADMINISTERED OVER FIRST 3 WK, Promoter: NONE USED) was 7/14 (50%), 5/13 (38%), 24%, not significant. The “tumour outcome (control, treated, inhibition, significance)” value (Carcinogen: 2,2'-HYDROXY-DI-N-PROPYLNITROSAMINE, 53609-64-6, N-ETHYL-N-HYDROXYETHYL- NITROSAMINE, 13147-25-6, 3,2'-DIMETHYL-4-AM, Carcinogen: 2,2'-HYDROXY-DI-N-PROPYLNITROSAMINE, 53609-64-6, N-ETHYL-N-HYDROXYETHYL- NITROSAMINE, 13147-25-6, 3,2'-DIMETHYL-4-AM, 1% IN DIET BEGINNING 1 WK POST LAST CARCINOGEN DOSE AND CONTINUING FOR 32 WK (STUDY DURATION: 36 WK), Target Tissue: Type of Lesion: URINARY BLADDER: CARCINOMA, Dose [Carcinogen]: 1000 MG/KG IP DHPN 2X, 1500 MG/KG GAV EHEN 2X AND 75 MG/KG SC DMAB 3X GIVEN OVER THE INITIAL 3 WK PERIOD AT 3-4 D INTERV, Promoter: NONE USED) was 1/14 (7%), 2/13 (15%), -114%, not calculated, the “tumour outcome (control, treated, inhibition, significance)” value (Carcinogen: 3,2'-DIMETHYL-4-AMINOBIPHENYL, 13394-86-0, 2% IN BASAL DIET BEGINNING POST CARCINOGEN TREATMENT AND CONTINUING FOR 40 WK (STUDY DURATION: 60 WK), Target Tissue: Type of Lesion: PANCREAS: ACINAR CELL NODULE, Dose [Carcinogen]: 50 MG/KG 1/2 WK FOR 20 WK TO RATS MAINTAINED ON ETHINYL ESTRADIOL CONTAINING DIET (0.75 PPM) FOR 1 WK CYCLED WITH ETHINY, Promoter: ETHINYL ESTRADIOL, 57-63-6) was 4/10 (40%), 5/13 (38%), 5%, not significant and the “tumour outcome (control, treated, inhibition, significance)” value (Carcinogen: 3,2'-DIMETHYL-4-AMINOBIPHENYL, 13394-86-0, 2% IN BASAL DIET BEGINNING POST CARCINOGEN TREATMENT AND CONTINUING FOR 40 WK (STUDY DURATION: 60 WK), Target Tissue: Type of Lesion: PROSTATE: CARCINOMA, Dose [Carcinogen]: 50 MG/KG 1/2 WK FOR 20 WK TO RATS MAINTAINED ON ETHINYL ESTRADIOL CONTAINING DIET (0.75 PPM) FOR 1 WK CYCLED WITH ETHINY, Promoter: ETHINYL ESTRADIOL, 57-63-6) was 5/10 (50%), 5/13 (38%), 24%, not significant.
